According to patent US4515980A, “Substituted aminobenzoates, their preparation and use” (Sterling Drug Inc., priority 1983, dated 1985):
Read-outs that look alike come from different tables or passages of the source.

How the values were obtained:
[1] = target: T1, cyclooxygenase (Rattus norvegicus, UniProt Q63921); experiment: Inhibition of cyclooxygenase derived from rat basophilic leukemia (RBL-1) cells, formation of product PDG2 (C1); format: biochemical; conditions: RBL-1 homogenate; for IC50: C1, PDG2; for inhibition at 1 µM: dose of 1 μM, 5 min preincubation, 15 min incubation at 37° C, read-out: In vitro % Inhibition, C1 (cyclooxygenase product formation)
T1 construct: Single cell suspensions of RBL-1 cells are homogenized to obtain the microsomal fraction containing lipoxygenase and cyclooxygenase; endogenous in cells; host or cells: RBL-1 (rat basophilic leukemia) cells, homogenate / microsomal fraction
T1 sequence (Q63921 27-602): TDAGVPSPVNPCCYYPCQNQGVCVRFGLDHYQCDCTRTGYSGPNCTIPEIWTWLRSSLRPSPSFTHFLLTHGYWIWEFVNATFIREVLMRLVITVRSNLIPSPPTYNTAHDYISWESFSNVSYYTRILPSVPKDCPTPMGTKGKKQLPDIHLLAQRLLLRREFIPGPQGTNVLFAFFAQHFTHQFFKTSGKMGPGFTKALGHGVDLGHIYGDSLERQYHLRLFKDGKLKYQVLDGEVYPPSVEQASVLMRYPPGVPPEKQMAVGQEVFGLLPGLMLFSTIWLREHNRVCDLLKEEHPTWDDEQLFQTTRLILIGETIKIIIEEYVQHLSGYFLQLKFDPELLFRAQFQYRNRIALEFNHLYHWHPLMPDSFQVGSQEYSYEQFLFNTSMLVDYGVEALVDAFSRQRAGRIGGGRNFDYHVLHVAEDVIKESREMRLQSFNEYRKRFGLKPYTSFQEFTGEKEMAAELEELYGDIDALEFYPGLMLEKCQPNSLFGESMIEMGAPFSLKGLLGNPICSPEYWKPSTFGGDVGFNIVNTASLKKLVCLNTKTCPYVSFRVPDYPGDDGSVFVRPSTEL
Procedure: (§1) The primary screening test used is a determination of the inhibition of lipoxygenase and cyclooxygenase derived from rat basophilic leukemia (RBL-1) cells. The test was carried out according to the following procedure:
(§2) Single cell suspensions of RBL-1 cells are homogenized to obtain the microsomal fraction containing lipoxygenase and cyclooxygenase. Test compounds are added to the enzyme-containing homogenate for a 5 min preincubation period at 37° C. prior to the addition of ^14 C-arachidonic acid substrate. Following incubation at 37° C. for 15 min, the reaction is stopped by the addition of 2M formic acid and the enzyme-substrate products are extracted into chloroform. An aliquot of the extract is evaporated to dryness, reconstituted in ether to 1/10 original volume, spotted on thin layer chromatography plates and chromatographed. The peak areas of radioactivity representing the products are located by scanning the plates. The quantity of products formed is estimated by measuring the height of the radioactivity peaks observed on the chromatographic scans. Alternatively, the areas of radioactivity are scraped from the plate and the ^14 C quantitated by scintillation counting.

[2] = target: T2, lipoxygenase (Rattus norvegicus, UniProt P12527); experiment: Inhibition of lipoxygenase derived from rat basophilic leukemia (RBL-1) cells, formation of products 5,12-di-HETE (L1) and 5-HETE (L2); format: biochemical
T2 construct: Single cell suspensions of RBL-1 cells are homogenized to obtain the microsomal fraction containing lipoxygenase and cyclooxygenase; endogenous in cells; host or cells: RBL-1 (rat basophilic leukemia) cells, homogenate / microsomal fraction
T2 sequence (P12527 1-673): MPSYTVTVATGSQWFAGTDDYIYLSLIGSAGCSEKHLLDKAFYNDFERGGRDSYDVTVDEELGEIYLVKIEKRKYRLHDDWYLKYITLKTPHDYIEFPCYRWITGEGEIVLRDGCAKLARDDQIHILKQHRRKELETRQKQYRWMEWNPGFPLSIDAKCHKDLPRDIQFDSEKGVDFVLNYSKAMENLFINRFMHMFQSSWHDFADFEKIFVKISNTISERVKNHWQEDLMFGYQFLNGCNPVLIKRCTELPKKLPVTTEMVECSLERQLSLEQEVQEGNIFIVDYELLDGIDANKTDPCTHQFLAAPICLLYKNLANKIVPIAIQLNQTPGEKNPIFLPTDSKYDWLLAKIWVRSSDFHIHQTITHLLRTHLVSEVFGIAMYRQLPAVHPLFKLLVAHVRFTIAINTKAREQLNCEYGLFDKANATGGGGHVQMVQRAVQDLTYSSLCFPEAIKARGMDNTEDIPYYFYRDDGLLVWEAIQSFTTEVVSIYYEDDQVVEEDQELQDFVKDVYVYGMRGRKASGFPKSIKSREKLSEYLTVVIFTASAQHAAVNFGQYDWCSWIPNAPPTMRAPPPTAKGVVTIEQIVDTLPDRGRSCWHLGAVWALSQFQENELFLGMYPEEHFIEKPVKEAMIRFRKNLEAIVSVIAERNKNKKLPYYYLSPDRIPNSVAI
Procedure: as §1, §2

[3] = test system: STS-A component of immunologically induced bronchoconstriction; experiment: Effect on the STS-A component of immunologically induced bronchoconstriction in guinea pigs; format: in vivo; conditions: 4 hrs., at 1 mg/kg orally, indomethacin + chlorpheniramine medicated, antigen challenge
Procedure: The test was carried out according to the following procedure:
Two weeks after immunization with egg albumin, guinea pigs are prepared for bronchoconstriction determination. One hour prior to antigen challenge, each animal is dosed orally with indomethacin and chlorpheniramine. Animals are anesthetized with sodium pentobarbital, the trachea cannulated and the animal artifically respired. Arachidonic acid is administered intravenously prior to antigen challenge. The resulting bronchoconstriction is recorded by the standard lung overflow procedure and the peak increase in intratracheal pressure (mm Hg) over a 10 minute observation period is recorded. Compounds are evaluated for their ability to prevent the increased intratracheal pressure in an experimental group of animals as compared to the medicated (indomethacin+chlorpheniramine+arachidonic acid) control group. The results are expressed in terms of percent inhibition or as ED50 values (efffective dose in 50% of the animals).

[4] = IC50, L1 (lipoxygenase product 5,12-di-HETE formation), L1, 5,12-di-HETE, RBL-1 homogenate
[5] = IC50, L2 (lipoxygenase product 5-HETE formation), L2, 5-HETE, RBL-1 homogenate
[6] = read-out: In vitro % Inhibition, L1 (lipoxygenase product 5,12-di-HETE formation)
[7] = read-out: In vitro % Inhibition, L2 (lipoxygenase product 5-HETE formation)

SMILES	IC50 [1] [nM]	inhibition at 1 µM [1] [%]	IC50 [2, 4] [nM]	IC50 [2, 5] [nM]	inhibition at 1 µM [2, 6] [%]	inhibition at 1 µM [2, 7] [%]	In vivo Guinea Pig % inhib. (increased intratracheal pressure, bronchoconstriction) [3] [%]	inhibition at 1 µM ([2]; L1, 5,12-di-HETE, dose of 1 μM, RBL-1 homogenate, 5 min preincubation, 15 min incubation at 37° C, read-out: In vitro % Inhibition, L1 (lipoxygenase product 5,12-di-HETE formation)) [%]	inhibition at 1 µM ([2]; L2, 5-HETE, dose of 1 μM, RBL-1 homogenate, 5 min preincubation, 15 min incubation at 37° C, read-out: In vitro % Inhibition, L2 (lipoxygenase product 5-HETE formation)) [%]
CCOC(=O)c1ccccc1Nc1ccccc1O [Example 1d, Ethyl 2-(2-hydroxyphenylamino)benzoate]	320	34	160	100	95	98	–	–	–
CCOC(=O)c1ccccc1Nc1ccc(O)cc1 [Example 2b, Ethyl 2-(4-hydroxyphenylamino)benzoate]	> 1000	19	340	250	77	93	38	–	–
CCOC(=O)c1cc(OC)ccc1Nc1ccc(O)cc1 [Example 3d, Ethyl 2-(4-hydroxyphenylamino)-5-methoxybenzoate]	> 1000	18	110	100	90	91	42	–	–
CCOC(=O)c1ccccc1Nc1ccc(O)cc1C [Example 4c, Ethyl 2-(4-hydroxy-2-methylphenylamino)benzoate]	–	0	–	–	–	–	–	60	76
CCOC(=O)c1ccccc1Nc1ccc(O)c(Cl)c1 [Example 5c, Ethyl 2-(3-chloro-4-hydroxyphenylamino)benzoate]	> 1000	26	670	300	90	99	–	–	–
